Values quoted from earlier work in patent US7674824B2, “Stable oxaliplatin formulation” (Fresenius Kabi Oncology Limited, priority 2006, dated 2010).

Details: 0.9% sodium chloride solution

## O=C1[O][Pt]2([NH][C@@H]3CCCC[C@H]3[NH]2)[O]C1=O [oxaliplatin]
  Stability after reconstitution in chloride-containing solution (in words): rapidly decomposing
